The target of experiment [1] is T1, BRD4 Bromo Domain 1 [BRD4(1)] (Homo sapiens, UniProt O60885).
T1 construct: N-terminally His6-tagged BRD4(1) (amino acids 67-152); made in house; host or cells: E. coli
Put plainly: BRD4(1)/acetylated peptide H4 binding assay (TR-FRET). To be noted: inhibition of interaction between His6-tagged BRD4(1) (amino acids 67-152) and acetylated histone H4 peptide. The text has this:
Protein-Protein Interaction Assay: BRD4/Acetylated Peptide H4 Binding Assay
1. Assay Description for BRD4 Bromo Domain 1 [BRD4(1)]
To assess the BRD4(1) binding strength of the substances described in this application, the ability thereof to inhibit the interaction between BRD4(1) and acetylated histone H4 in a dose-dependent manner was quantified.
For this purpose, a time-resolved fluorescence resonance energy transfer (TR-FRET) assay was used, which measures the binding between N-terminally His6-tagged BRD4(1) (amino acids 67-152) and a synthetic acetylated histone H4 (Ac-H4) peptide with sequence GRGK(Ac)GGK(Ac)GLGK(Ac)GGAK(Ac)RHGSGSK-biotin. The recombinant BRD4(1) protein produced in house according to Filippakopoulos et al., Cell, 2012, 149:214-231 was expressed in E. coli and purified by means of (Ni-NTA) affinity and (Sephadex G-75) size exclusion chromatography. The Ac-H4 peptide can be purchased, for example, from Biosyntan (Berlin, Germany).
In the assay, typically 11 different concentrations of each substance (0.1 nM, 0.33 nM, 1.1 nM, 3.8 nM, 13 nM, 44 nM, 0.15 μM, 0.51 μM, 1.7 μM, 5.9 μM and 20 μM) were analysed as duplicates on the same microtitre plate. For this purpose, 100-fold concentrated solutions in DMSO were prepared by serial dilutions (1:3.4) of a 2 mM stock solution into a clear, 384-well microtitre plate (Greiner Bio-One, Frickenhausen, Germany). From this, 50 nl were transferred into a black test plate (Greiner Bio-One, Frickenhausen, Germany). The test was started by the addition of 2 μl of a 2.5-fold concentrated BRD4(1) solution (final concentration typically 10 nM in the 5 μl of reaction volume) in aqueous assay buffer [50 mM HEPES pH 7.5, 50 mM sodium chloride (NaCl), 0.25 mM CHAPS and 0.05% serum albumin (BSA)] to the substances in the test plate. This was followed by a 10-minute incubation step at 22° C. for the pre-equilibration of putative complexes between BRD4(1) and the substances.
The mixture was then incubated in the dark at 22° C. for one hour and then at 4° C. for at least 3 hours and for no longer than overnight. The formation of BRD4(1)/Ac-H4 complexes was determined by the measurement of the resonance energy transfer from the streptavidin-Eu cryptate to the anti-6His-XL665 antibody present in the reaction. For this purpose, the fluorescence emission was measured at 620 nm and 665 nm after excitation at 330-350 nm in a TR-FRET measuring instrument, for example a Rubystar or Pherastar (both from BMG Lab Technologies, Offenburg, Germany) or a Viewlux (Perkin-Elmer). The ratio of the emissions at 665 nm and at 622 nm was taken as an indicator of the amount of BRD4(1)/Ac-H4 complexes formed.
The data (ratios) obtained were normalized, with 0% inhibition corresponding to the mean from the measurements for a set of controls (typically 32 data points) in which all the reagents were present. In these, in place of test substances, 50 nl of DMSO (100%) were used Inhibition of 100% corresponded to the mean from the measurements for a set of controls (typically 32 data points) in which all the reagents except BRD4(1) were present. The IC50 was determined by regression analysis based on a 4-parameter equation (minimum, maximum, IC50, Hill; Y=max+(min−max)/(1+(X/IC50)Hill).
On the technique in general: Time-resolved FRET reads energy transfer from a long-lived donor to a nearby acceptor.

A further experiment concerns MOLM-13 cells. Kind of experiment: MOLM-13 cell proliferation assay (alamarBlue). In kind it is cell-based. To be noted: inhibition of cell proliferation, 96 hours, human AML cell line. On the procedure: (§1) In accordance with the invention, the ability of the substances to inhibit cell proliferation was determined Cell viability was determined by means of the alamarBlue® reagent (Invitrogen) in a Victor X3 Multilabel Reader (Perkin Elmer). The excitation wavelength was 530 nm and the emission wavelength […].
The MOLM-13 cells (DSMZ, ACC 554) were sown at a concentration of 4000 cells/well in 100 μl of growth medium (RPMI1640, 10% FCS) on 96-well microtitre plates.
(§2) After overnight incubation at 37° C., the fluorescence values were determined (CI values). Then the plates were treated with various substance dilutions (1E-5 M, 3E-6 M, 1E-6 M, 3E-7 M, 1E-7 M, 3E-8 M, 1E-8 M) and incubated at 37° C. over 96 hours (MOLM-13, B16F10 cells) or 120 hours (MOLP-8 cells). Subsequently, the fluorescence values were determined (CO values). For the data analysis, the CI values were subtracted from the CO values and the results were compared between cells which had been treated with various dilutions of the substance or only with buffer solution. The IC50 values (substance concentration needed for 50% inhibition of cell proliferation) were calculated therefrom.
MOLM-13 human AML (acute myeloid leukaemia) cell line
A general note: The colour change of resazurin is a common sign of viable cells or microbes.

A further experiment deals with B16F10 cells. Kind of experiment: B16F10 cell proliferation assay (alamarBlue). In kind it is cell-based. The conditions noted are these: B16-F10; inhibition of cell proliferation, 96 hours, mouse melanoma cell line. The protocol: as §1
The B16F10 cells (ATCC, CRL-6475) were sown at a concentration of 300-500 cells/well in 100 μl of growth medium (DMEM with phenol red, 10% FCS) on 96-well microtitre plates.
as §2
B16F10 mouse melanoma cell line

The next experiment concerns MOLP-8 cells. Put plainly: MOLP-8 cell proliferation assay (alamarBlue). Type of experiment: cell-based. To be noted: inhibition of cell proliferation, 120 hours, human multiple myeloma cell line. On the procedure:
as §1
The MOLP-8 cells (DSMZ, ACC 569) were sown at a concentration of 4000 cells/well in 100 μl of growth medium (RPMI1640, 20% FCS) on 96-well microtitre plates.
as §2
MOLP-8 human multiple myeloma cell line

Structures are written as SMILES. pIC50: −log10 of the molar value.

The record followed here is patent publication US20150344444A1, “BET-PROTEIN-INHIBITING DIHYDROXYQUINOXALINONES” (BAYER PHARMA AKTIENGESELLSCHAFT, priority 2012, published 2015).

For orientation: pIC50 means the negative decadic logarithm of the IC50, by convention in mol/L.

`C[C@@H]1C(=O)N(C)c2ccc(Nc3ccc(C(=O)NC4CCN(C)CC4)cc3)cc2N1C1CCCC1` [Example 4, 4-{[(3R)-4-cyclopentyl-1,3-dimethyl-2-oxo-1,2,3,4-tetrahydroquinoxalin-6-yl]amino}-N-(1-methylpiperidin-4-yl)benzamide]: the pIC50 in experiment [1] was 7.30; in the experiment on MOLM-13 cells it was 6.45; in the experiment on B16F10 cells, 6.19; with MOLP-8 cells, 6.33.
